Reference: patent publication US20120122924A1, “NAMPT INHIBITORS” (ABBOTT LABORATORIES, priority 2010, published 2012)

Molecular target: recombinant, human, C-terminally-His tagged NAMPT (Homo sapiens, UniProt P43490)
Assay: Time-Resolved Fluorescence Resonance Energy Transfer (TR-FRET) binding assay of NAMPT
Settings: 6.8 nM NAMPT, 200 nM probe (Oregon Green 488-conjugated APO866), 1 nM Tb-anti-His antibody, 2-3 hours
Method: Determination of the utility of compounds having Formula (I) as binders to and inhibitors of NAMPT was performed using a Time-Resolved Fluorescence Resonance Energy Transfer (TR-FRET) binding assay.
Time-Resolved Fluorescence Resonance Energy Transfer (TR-FRET) Binding Assay of NAMPT
The assay was carried out in 18 uL low volume plates (Owens Corning) in reaction buffer (50 mM HEPES (NaOH), pH 7.5, 100 mM NaCl, 10 mM MgCl2, 1 mM DTT, 1% Glycerol) using 6.8 nM recombinant, human, C-terminally-His tagged NAMPT, 1 nM Tb-anti-His antibody (Invitrogen, Cat # PV5895), and 200 nM probe (Oregon Green 488-conjugated APO866; A-1251667.0). Plates were covered, and reactions were carried out for 2-3 hours. Plates were read with Envision (Laser Lantha low volume protocol) after 2 to 3 hours. Excitation was carried out at 337 nm, and the ratio of emission of Oregon Green (520 nm) to terbium (492 nm) was determined and used to calculate IC50 values of test compounds.

Sequence of recombinant, human, C-terminally-His tagged NAMPT (P43490 whole entry): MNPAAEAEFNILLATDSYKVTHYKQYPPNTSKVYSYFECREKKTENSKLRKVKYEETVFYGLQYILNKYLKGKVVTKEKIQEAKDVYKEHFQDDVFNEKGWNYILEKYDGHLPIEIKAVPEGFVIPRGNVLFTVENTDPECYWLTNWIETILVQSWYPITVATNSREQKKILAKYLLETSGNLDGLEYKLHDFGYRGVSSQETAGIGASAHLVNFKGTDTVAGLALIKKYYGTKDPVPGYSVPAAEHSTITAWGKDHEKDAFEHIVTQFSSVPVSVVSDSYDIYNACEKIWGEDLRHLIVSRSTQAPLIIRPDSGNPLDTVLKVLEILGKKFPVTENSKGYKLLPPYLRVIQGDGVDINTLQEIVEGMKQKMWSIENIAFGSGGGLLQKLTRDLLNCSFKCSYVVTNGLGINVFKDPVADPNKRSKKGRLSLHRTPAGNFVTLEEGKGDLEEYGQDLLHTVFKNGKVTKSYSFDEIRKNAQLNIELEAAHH

Compound | IC50 [nM]
CCC(C)CC(=O)Nc1ccc(NC(=O)N2CCc3ccccc3C2)cc1 (racemic) [Example 69, N-{4-[((3R)-3-methylpentanoyl)amino]phenyl}-3,4-dihydroisoquinoline-2(1H)-carboxamide and N-{4-[((3S)-3-methylpentanoyl)amino]phenyl}-3,4-dihydroisoquinoline-2(1H)-carboxamide] | 6.49
CC(C)CCNC(=O)c1ccc(NC(=O)N2CCc3ccccc3C2)cc1 [Example 1, N-{4-[(3-methylbutyl)carbamoyl]phenyl}-3,4-dihydroisoquinoline-2(1H)-carboxamide] | 16.7
O=C(Nc1ccc(C(=O)N2CCN(c3ccccn3)CC2)cc1)N1CCc2ccccc2C1 [Example 2, N-(4-{[4-(pyridin-2-yl)piperazin-1-yl]carbonyl}phenyl)-3,4-dihydroisoquinoline-2(1H)-carboxamide] | 13.2
O=C(NCCCc1ccccc1)c1ccc(NC(=O)N2CCc3cnccc3C2)cc1 [Example 4, N-{4-[(3-phenylpropyl)carbamoyl]phenyl}-3,4-dihydro-2,6-naphthyridine-2(1H)-carboxamide] | 15
CC(C)CCNC(=O)c1ccc(NC(=O)N2CCc3cc(F)ccc3C2)cc1 [Example 6, 6-fluoro-N-{4-[(3-methylbutyl)carbamoyl]phenyl}-3,4-dihydroisoquinoline-2(1H)-carboxamide] | 10.3
O=C(NCc1ccccc1)c1ccc(NC(=O)N2CCc3ccccc3C2)cc1 [Example 8, N-[4-(benzylcarbamoyl)phenyl]-3,4-dihydroisoquinoline-2(1H)-carboxamide] | 23.7
O=C(NCCCc1ccccc1)c1ccc(NC(=O)N2CCc3ccccc3C2)nc1 [Example 9, N-{5-[(3-phenylpropyl)carbamoyl]pyridin-2-yl}-3,4-dihydroisoquinoline-2(1H)-carboxamide] | 29.1
CC(C)CCNC(=O)c1ccc(NC(=O)N2CCc3ccccc3C2)nc1 [Example 10, N-{5-[(3-methylbutyl)carbamoyl]pyridin-2-yl}-3,4-dihydroisoquinoline-2(1H)-carboxamide] | 29.4
CC(C)CCn1cc(NC(=O)c2ccc(NC(=O)N3CCc4ccccc4C3)cc2)cn1 [Example 11, N-(4-{[1-(3-methylbutyl)-1H-pyrazol-4-yl]carbamoyl}phenyl)-3,4-dihydroisoquinoline-2(1H)-carboxamide] | 43.3
O=C(NCCc1cccs1)c1ccc(NC(=O)N2CCc3cnccc3C2)cc1 [Example 12, N-(4-{[2-(2-thienyl)ethyl]carbamoyl}phenyl)-3,4-dihydro-2,6-naphthyridine-2(1H)-carboxamide] | 45.2
CC(C)CCNC(=O)c1ccc(NC(=O)N2CCc3ccccc3C2)cn1 [Example 18, N-{6-[(3-methylbutyl)carbamoyl]pyridin-3-yl}-3,4-dihydroisoquinoline-2(1H)-carboxamide] | 178
O=C(NCCCc1ccccc1)c1ccc(NC(=O)N2CCc3ccc(F)cc3C2)cc1 [Example 20, 7-fluoro-N-{4-[(3-phenylpropyl)carbamoyl]phenyl}-3,4-dihydroisoquinoline-2(1H)-carboxamide] | 248
O=C(NCCCc1ccccc1)c1ccc(NC(=O)N2CCc3ccccc3C2)cn1 [Example 21, N-{6-[(3-phenylpropyl)carbamoyl]pyridin-3-yl}-3,4-dihydroisoquinoline-2(1H)-carboxamide] | 286
O=C(NCCc1cccs1)c1ccc(NC(=O)N2CCc3ccccc3C2)cn1 [Example 22, N-(6-{[2-(2-thienyl)ethyl]carbamoyl}pyridin-3-yl)-3,4-dihydroisoquinoline-2(1H)-carboxamide] | 309
O=C(NCCc1cccs1)c1ccc(NC(=O)N2CCc3ccc(F)cc3C2)cc1 [Example 23, 7-fluoro-N-(4-{[2-(2-thienyl)ethyl]carbamoyl}phenyl)-3,4-dihydroisoquinoline-2(1H)-carboxamide] | 366
O=C(NCCCc1ccccc1)c1ccc(NC(=O)N2CCc3ccncc3C2)cc1 [Example 25, N-{4-[(3-phenylpropyl)carbamoyl]phenyl}-3,4-dihydro-2,7-naphthyridine-2(1H)-carboxamide] | 597

The remaining compounds from weak to strong by IC50, led by results:

IC50 [nM] | Compound
196 | O=C(Nc1ccc(NC(=O)N2CCc3ccccc3C2)cc1)C1CCOC1 (racemic) [Example 75, N-{4-[((3R)-tetrahydrofuran-3-ylcarbonyl)amino]phenyl}-3,4-dihydroisoquinoline-2(1H)-carboxamide and N-{4-[((3S)-tetrahydrofuran-3-ylcarbonyl)amino]phenyl}-3,4-dihydroisoquinoline-2(1H)-carboxamide]
195 | O=C(NCCc1cccs1)c1ccc(NC(=O)N2CCc3ccccc3C2)nc1 [Example 19, N-(5-{[2-(2-thienyl)ethyl]carbamoyl}pyridin-2-yl)-3,4-dihydroisoquinoline-2(1H)-carboxamide]
178 | O=C(NCCc1cccs1)c1ccc(NC(=O)N2CCc3ccccc3C2)cc1 [Example 17, N-(4-{[2-(2-thienyl)ethyl]carbamoyl}phenyl)-3,4-dihydroisoquinoline-2(1H)-carboxamide]
171 | CC(C)CCNC(=O)c1ccc(NC(=O)N2CCc3ccc(F)cc3C2)cc1 [Example 16, 7-fluoro-N-{4-[(3-methylbutyl)carbamoyl]phenyl}-3,4-dihydroisoquinoline-2(1H)-carboxamide]
97.6 | O=C(NCCc1ccccc1)c1ccc(NC(=O)N2CCc3ccccc3C2)cc1 [Example 15, N-{4-[(2-phenylethyl)carbamoyl]phenyl}-3,4-dihydroisoquinoline-2(1H)-carboxamide]
47.1 | O=C(Nc1cnn(Cc2ccccc2)c1)c1ccc(NC(=O)N2CCc3ccccc3C2)cc1 [Example 14, N-{4-[(1-benzyl-1H-pyrazol-4-yl)carbamoyl]phenyl}-3,4-dihydroisoquinoline-2(1H)-carboxamide]
45.8 | O=C(NCCc1cccs1)c1ccc(NC(=O)N2CCc3cc(F)ccc3C2)cc1 [Example 13, 6-fluoro-N-(4-{[2-(2-thienyl)ethyl]carbamoyl}phenyl)-3,4-dihydroisoquinoline-2(1H)-carboxamide]
20.7 | O=C(NCCCc1ccccc1)c1ccc(NC(=O)N2CCc3ccccc3C2)cc1 [Example 7, N-{4-[(3-phenylpropyl)carbamoyl]phenyl}-3,4-dihydroisoquinoline-2(1H)-carboxamide]
15.7 | CC(C)CCNC(=O)c1ccc(NC(=O)N2CCc3cnccc3C2)cc1 [Example 5, N-{4-[(3-methylbutyl)carbamoyl]phenyl}-3,4-dihydro-2,6-naphthyridine-2(1H)-carboxamide]
13.8 | O=C(NCCCc1ccccc1)c1ccc(NC(=O)N2CCc3cc(F)ccc3C2)cc1 [Example 3, 6-fluoro-N-{4-[(3-phenylpropyl)carbamoyl]phenyl}-3,4-dihydroisoquinoline-2(1H)-carboxamide]
4.45 | O=C(Nc1ccc(NC(=O)N2CCc3ccccc3C2)cc1)C1Cc2ccccc2O1 (racemic) [Example 68, N-{4-[((2R)-2,3-dihydro-1-benzofuran-2-ylcarbonyl)amino]phenyl}-3,4-dihydroisoquinoline-2(1H)-carboxamide and N-{4-[((2S)-2,3-dihydro-1-benzofuran-2-ylcarbonyl)amino]phenyl}-3,4-dihydroisoquinoline-2(1H)-carboxamide]
